From US20230041743A1, “1,8-NAPHTHYRIDIN-2-ONE COMPOUNDS FOR THE TREATMENT OF AUTOIMMUNE DISEASE” (Hoffmann-La Roche Inc., priority 2019, published 2023) come the findings set out here.

The target of one series is T1, human TLR7 (Homo sapiens, UniProt Q9NYK1).
T1 construct: host or cells: HEK293 (HEK-Blue hTLR7)
T1 sequence (Q9NYK1 27-1049): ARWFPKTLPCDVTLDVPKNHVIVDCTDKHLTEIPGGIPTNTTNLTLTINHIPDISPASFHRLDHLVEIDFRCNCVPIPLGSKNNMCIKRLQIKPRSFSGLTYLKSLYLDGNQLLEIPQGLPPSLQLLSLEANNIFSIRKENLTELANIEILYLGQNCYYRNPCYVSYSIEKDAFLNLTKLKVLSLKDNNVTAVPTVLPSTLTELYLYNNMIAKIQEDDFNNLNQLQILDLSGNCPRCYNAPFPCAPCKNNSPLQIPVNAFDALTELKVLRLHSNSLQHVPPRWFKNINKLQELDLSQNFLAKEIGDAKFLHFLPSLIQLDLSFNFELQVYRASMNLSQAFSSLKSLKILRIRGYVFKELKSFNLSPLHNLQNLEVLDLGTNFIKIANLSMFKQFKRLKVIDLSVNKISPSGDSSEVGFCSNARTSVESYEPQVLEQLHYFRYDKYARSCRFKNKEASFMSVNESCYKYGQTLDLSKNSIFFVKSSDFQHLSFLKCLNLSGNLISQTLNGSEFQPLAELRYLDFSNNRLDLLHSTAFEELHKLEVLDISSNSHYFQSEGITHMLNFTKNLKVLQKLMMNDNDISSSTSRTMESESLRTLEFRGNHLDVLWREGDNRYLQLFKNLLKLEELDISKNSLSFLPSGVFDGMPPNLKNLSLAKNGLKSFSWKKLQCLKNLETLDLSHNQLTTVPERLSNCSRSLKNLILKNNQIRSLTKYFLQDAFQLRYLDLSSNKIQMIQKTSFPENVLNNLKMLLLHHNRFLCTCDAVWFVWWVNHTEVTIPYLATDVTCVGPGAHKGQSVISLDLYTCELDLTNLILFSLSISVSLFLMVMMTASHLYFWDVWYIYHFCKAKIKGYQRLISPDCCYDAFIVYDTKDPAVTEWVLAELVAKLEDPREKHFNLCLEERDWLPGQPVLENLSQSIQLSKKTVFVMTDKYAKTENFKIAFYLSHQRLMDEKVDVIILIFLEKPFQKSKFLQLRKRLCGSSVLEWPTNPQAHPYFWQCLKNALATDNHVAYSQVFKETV
The series is described as follows: HEK293-Blue-hTLR-7 cells assay (SEAP reporter, R848 stimulation). Type of series: cell-based. The following applies: HEK293-Blue-hTLR7 cells, R848 ligand, 20 hrs incubation; read-out: HEK/hTLR7 IC50. From the text: HEK293-Blue-hTLR-7 Cells Assay:
A stable HEK293-Blue-hTLR-7 cell line was purchased from InvivoGen (Cat. #: hkb-htlr7, San Diego, Calif., USA). These cells were originally designed for studying the stimulation of human TLR7 by monitoring the activation of NF-κB. A SEAP (secreted embryonic alkaline phosphatase) reporter gene was placed under the control of the IFN-β minimal promoter fused to five NF-κB and AP-1-binding sites. The SEAP was induced by activating NF-κB and AP-1 via stimulating HEK-Blue hTLR7 cells with TLR7 ligands. Therefore the reporter expression was declined by TLR7 antagonist under the stimulation of a ligand, such as R848 (Resiquimod), for incubation of 20 hrs. The cell culture supernatant SEAP reporter activity was determined using QUANTI-Blue™ kit (Cat. #: rep-qb1, Invivogen, San Diego, Ca, USA) at a wavelength of 640 nm, a detection medium that turns purple or blue in the presence of alkaline phosphatase.
HEK293-Blue-hTLR7 cells were incubated at a density of 250,000-450,000 cells/mL in a volume of 170 μL in a 96-well plate in Dulbecco's Modified Eagle's medium (DMEM) containing 4.5 g/L glucose, 50 U/mL penicillin, […], […], 2 mM L-glutamine, 10% (v/v) heat-inactivated fetal bovine serum with addition of 20 μL test compound in a serial dilution in the presence of final DMSO at 1% and 10 μL of 20 uM R848 in above DMEM, perform incubation under 37° C. in a CO2 incubator for 20 hrs. Then 20 μL of the supernatant from each well was incubated with 180 μL Quanti-blue substrate solution at 37° C. for 2 hrs and the absorbance was read at 620˜655 nm using a spectrophotometer. The signaling pathway that TLR7 activation leads to downstream NF-κB activation has been widely accepted, and therefore similar reporter assay was modified for evaluating TLR7 antagonist.

A short description of series [1]: Human microsomal stability assay. Type of series: in vitro ADME. The following applies: human liver microsomes, 1 μM test compound, 0.5 mg/mL protein, 37° C.; low <7.0, medium 7.0-16.2, high 16.2-23.2. Here is the method: Human Microsomal Stability Assay
Human liver microsomes (Cat. NO.: 452117, Corning, USA) were preincubated with test compound for 10 minutes at 37° C. in 100 mM potassium phosphate buffer, pH 7.4. The reactions were initiated by adding NADPH regenerating system. The final incubation mixtures contained 1 μM test compound, 0.5 mg/mL liver microsomal protein, 1 mM MgCl2, 1 mM NADP, 1 unit/mL isocitric dehydrogenase and 6 mM isocitric acid in 100 mM potassium phosphate buffer, pH 7.4. After incubation times of 0, 3, 6, 9, 15 and 30 minutes at 37° C., 300 μL of cold ACN (including internal standard) was added to 100 μL incubation mixture to terminate the reaction. Following precipitation and centrifugation, 100 uL supernatant will be taken out and added 300 uL water.
The amount of compound remaining in the samples was determined by LC-MS/MS. Controls of no NADPH regenerating system at zero and 30 minutes were also prepared and analyzed. The results were categorized as: low (<7.0 mL/min/kg), medium (7.0-16.2 mL/min/kg) and high (16.2-23.2 mL/min/kg).
(Liver microsomes are a subcellular fraction often used to study metabolism.)

Regarding `C[C@@H]1CN(c2cc(=O)n(C)c3ncccc23)C[C@@H]2c3ccc(N4CC(C)(N)C4)cc3CN12` [Example 1, 4-[(4R,10bS)-8-(3-amino-3-methyl-azetidin-1-yl)-4-methyl-3,4,6,10b-tetrahydro-1H-pyrazino[2,1-a]isoindol-2-yl]-1-methyl-1,8-naphthyridin-2-one], the IC50 at human TLR7 came to 30.4 nM. Turning to `C[C@@H]1CN(c2cc(=O)n(C)c3ncccc23)C[C@@H]2c3ccc(N4CC5(CN(C)C5)C4)cc3CN12` [Example 2, 4-[(4R,10bS)-4-methyl-8-(6-methyl-2,6-diazaspiro[3.3]heptan-2-yl)-3,4,6,10b-tetrahydro-1H-pyrazino[2,1-a]isoindol-2-yl]-1-methyl-1,8-naphthyridin-2-one], the “CL (h)” value in series [1] is 9.5 mL/min/kg. Further, the IC50 at human TLR7 amounted to 11.5 nM. Consider `C[C@@H]1CN(c2cc(=O)n(C)c3ncccc23)C[C@@H]2c3ccc(N4CC5(CNCCO5)C4)cc3CN12` [Example 3, 4-[(4R,10bS)-4-methyl-8-(5-oxa-2,8-diazaspiro[3.5]nonan-2-yl)-3,4,6,10b-tetrahydro-1H-pyrazino[2,1-a]isoindol-2-yl]-1-methyl-1,8-naphthyridin-2-one], for which the IC50 at human TLR7 amounted to 21.1 nM.

Take `C[C@@H]1CN(c2cc(=O)n(C)c3ncccc23)C[C@@H]2c3ccc(N4CC[C@@](C)(N)C4)cc3CN12` [Example 4, 4-[(4R,10bS)-8-[(3R)-3-amino-3-methyl-pyrrolidin-1-yl]-4-methyl-3,4,6,10b-tetrahydro-1H-pyrazino[2,1-a]isoindol-2-yl]-1-methyl-1,8-naphthyridin-2-one]: the “CL (h)” value in series [1] is on record as 6.3 mL/min/kg. On human TLR7, the IC50 turned out to be 39.5 nM. Regarding `CO[C@@H]1CN(c2ccc3c(c2)CN2[C@H](C)CN(c4cc(=O)n(C)c5ncccc45)C[C@H]32)C[C@H]1N` [Example 5, 4-[(4R,10bS)-8-[(3R,4R)-3-amino-4-methoxy-pyrrolidin-1-yl]-4-methyl-3,4,6,10b-tetrahydro-1H-pyrazino[2,1-a]isoindol-2-yl]-1-methyl-1,8-naphthyridin-2-one], the “CL (h)” value in series [1] was found to be 7.8 mL/min/kg. Moreover, the IC50 on human TLR7 was 38.1 nM. As for `C[C@@H]1CN(c2cc(=O)n(C)c3ncccc23)C[C@@H]2c3ccc(N4C[C@H]5NCCO[C@@H]5C4)cc3CN12` [Example 6, 4-[(4R,10bS)-8-[(4aR,7aR)-3,4,4a,5,7,7a-hexahydro-2H-pyrrolo[3,4-b][1,4]oxazin-6-yl]-4-methyl-3,4,6,10b-tetrahydro-1H-pyrazino[2,1-a]isoindol-2-yl]-1-methyl-1,8-naphthyridin-2-one], the IC50 at human TLR7 stood at 62 nM. Turning to `C[C@@H]1CN(c2cc(=O)n(C)c3ncccc23)C[C@@H]2c3ccc(N4C[C@@H](N)[C@@H](F)C4)cc3CN12` [Example 7, 4-[(4R,10bS)-8-[(3R,4S)-3-amino-4-fluoro-pyrrolidin-1-yl]-4-methyl-3,4,6,10b-tetrahydro-1H-pyrazino[2,1-a]isoindol-2-yl]-1-methyl-1,8-naphthyridin-2-one], in series [1], the “CL (h)” value is recorded as 9.4 mL/min/kg. Also, the IC50 at human TLR7 amounted to 43.7 nM.

In the case of `CO[C@H]1CN(c2ccc3c(c2)CN2[C@H](C)CN(c4cc(=O)n(C)c5ncccc45)C[C@H]32)CC[C@@H]1N` [Example 8, 4-[(4R,10bS)-8-[(3S,4S)-4-amino-3-methoxy-1-piperidyl]-4-methyl-3,4,6,10b-tetrahydro-1H-pyrazino[2,1-a]isoindol-2-yl]-1-methyl-1,8-naphthyridin-2-one], the IC50 on human TLR7 was determined as 19.4 nM. As to `CO[C@H]1CCN(c2ccc3c(c2)CN2[C@H](C)CN(c4cc(=O)n(C)c5ncccc45)C[C@H]32)C[C@@H]1N` [Example 9, 4-[(4R,10bS)-8-[(3S,4S)-3-amino-4-methoxy-1-piperidyl]-4-methyl-3,4,6,10b-tetrahydro-1H-pyrazino[2,1-a]isoindol-2-yl]-1-methyl-1,8-naphthyridin-2-one], the “CL (h)” value in series [1] stood at 8.8 mL/min/kg. For the same compound, on human TLR7, the IC50 turned out to be 62.6 nM. In the case of `COC[C@@H]1CNCCN1c1ccc2c(c1)CN1[C@H](C)CN(c3cc(=O)n(C)c4ncccc34)C[C@H]21` [Example 10, 4-[(4R,10bS)-8-[(2S)-2-(methoxymethyl)piperazin-1-yl]-4-methyl-3,4,6,10b-tetrahydro-1H-pyrazino[2,1-a]isoindol-2-yl]-1-methyl-1,8-naphthyridin-2-one], at human TLR7, the IC50 is 9.1 nM. For the compound `C[C@@H]1CN(c2ccc3c(c2)CN2[C@H](C)CN(c4cc(=O)n(C)c5ncccc45)C[C@H]32)CCN1` [Example 14, 4-[(4R,10bS)-4-methyl-8-[(3R)-3-methylpiperazin-1-yl]-3,4,6,10b-tetrahydro-1H-pyrazino[2,1-a]isoindol-2-yl]-1-methyl-1,8-naphthyridin-2-one], at human TLR7, the IC50 was 6.4 nM.

As for `C[C@@H]1CNCCN1c1ccc2c(c1)CN1[C@H](C)CN(c3cc(=O)n(C)c4ncccc34)C[C@H]21` [Example 17, 4-[(4R,10bS)-4-methyl-8-[(2R)-2-methylpiperazin-1-yl]-3,4,6,10b-tetrahydro-1H-pyrazino[2,1-a]isoindol-2-yl]-1-methyl-1,8-naphthyridin-2-one], the IC50 on human TLR7 was found to be 2.8 nM. Consider `C[C@@H]1CN(c2cc(=O)n(C)c3ncccc23)C[C@@H]2c3ccc(N4CCOC[C@H](N)C4)cc3CN12` [Example 22, 4-[(4R,10bS)-8-[(6R)-6-amino-1,4-oxazepan-4-yl]-4-methyl-3,4,6,10b-tetrahydro-1H-pyrazino[2,1-a]isoindol-2-yl]-1-methyl-1,8-naphthyridin-2-one], for which the IC50 at human TLR7 was 35.8 nM. Same read-out and setting: under `C[C@@H]1CN(c2cc(=O)n(C)c3ncccc23)C[C@@H]2c3ccc([C@H]4CC[C@@H](N5CCOCC5)CC4)cc3CN12` [Example 27B, 4-[(4R,10bS)-4-methyl-8-(cis-4-morpholinocyclohexyl)-3,4,6,10b-tetrahydro-1H-pyrazino[2,1-a]isoindol-2-yl]-1-methyl-1,8-naphthyridin-2-one] stands 10 nM; under `C[C@@H]1CN(c2cc(=O)n(C)c3ncccc23)C[C@@H]2c3ccc([C@@H]4C[C@H]5COC[C@@H](C4)N5)cc3CN12` [Example 28B, 4-[(4R,10bS)-4-methyl-8-(exo-3-oxa-9-azabicyclo[3.3.1]nonan-7-yl)-3,4,6,10b-tetrahydro-1H-pyrazino[2,1-a]isoindol-2-yl]-1-methyl-1,8-naphthyridin-2-one], 8.6 nM.
